According to patent US10258635B2, “Formulations and compositions of vitamin D analogs for treating and preventing cancer and other diseases” (priority 2013, dated 2019):
“Also recorded” adds a separate entry of the source. Values belong to the molecule of their own block, whether it stands above or below them.

Assays:
DU 145 cells = assay: Efficacy study of 25-OH-D3-3-BE in DU 145 tumor-bearing athymic nude mice (oral gavage); assay type: in vivo; conditions: for anti-tumor effect: mouse prostate tumor xenograft model; for average tumor volume at the end of treatment: oral gavage every third day, day 11 to 31
Method: Male, athymic nude mice (average weight 20 gm) were fed normal rat chow and water ad libitum. They were inoculated with DU 145 cells, grown in culture, in the flank under light anesthesia. […] Administration of the compound was done by oral gavage on every third day (when weights were determined). Treatment started on day 11 and stopped on day 31; and they were left untreated for several additional days (as shown in FIG. 26) when they were sacrificed and blood was collected.

DU-145 cells = assay: 3H-thymidine incorporation assay in DU-145 cells; assay type: cell-based, human; conditions: for anti-proliferative effect in DU-145 cells: 10^−6M, separate experiment
[1] = tested on: DU 145 human androgen-insensitive prostate cancer cells; assay: AMPI-107 in DU 145 xenograft, i.p. administration (Example 17); assay type: in vivo
Description: (§1) Male, athymic mice (average weight 20 gm) were fed normal rat chow and water ad libitum. They were inoculated with DU 145 human androgen-insensitive prostate cancer cells (10^6), grown in culture in the flank under light anesthesia. […] Treatment started on day 11 and stopped on day 30; and they were left untreated for two (2) additional days when they were sacrificed.

[2] = tested on: DU 145 human androgen-insensitive prostate cancer cells; assay: AMPI-107 in DU 145 xenograft, p.o. administration (Example 17); assay type: in vivo
Description: as §1

[3] = tested on: LNCaP prostate cancer cells; assay: Cell-counting antiproliferative evaluation, LNCaP; assay type: cell-based; conditions: Calcitrol 10^−6M, AMPI-107 10^−5M; dosed days 1, 3, 5, counted 7th day
Method: (§2) Prostate cancer cells (DU-145, PC-3 and LNCaP) were grown in DMEM medium with 10% FBS, antibiotics, etc. […] Results are designated as percentage of ethanol control.

[4] = tested on: DU-145 Prostate Cancer Cells; assay: Cell-counting antiproliferative evaluation, DU-145; assay type: cell-based, human; conditions: Calcitrol 10^−6M, AMPI-107 10^−5M; dosed days 1, 3, 5, counted 7th day
Method: as §2

LNCaP cells = assay: Cell counting assay, LNCaP; assay type: cell-based; conditions: 24 hours; 10^−6 M 25-OH-D3-3-BE, 10^−7 M 1,25(OH)2D3; not serum-starved
Method: (§3) PZ-HPV-7 cells were grown in MCDB media containing pituitary extract, epidermal growth factor (EGF) and 1% penicillin/streptomycin. Keratinocytes were also grown in the same media with additional PG1 and insulin. PC-3, LNCaP, DU-145 cells were grown in RPMI media containing 10% fetal bovine serum (FBS) and antibiotics. MCF-7 cells were grown in DMEM media containing 10% FBS and antibiotics. LAPC-4 cells were maintained in IMEM media containing antibiotics, 1° % L-glutamine and 10 nM of R1881, a synthetic […]. MC3T3 mouse bone cells were grown in α-MEM media containing 10% FBS and antibiotics. In general, cells were grown in 35 mm dishes to 70-80% confluence and then plated into 24-well plates in respective media. After the cells grew to approximately 70% confluence, they were serum-starved for 20 hours (MCF-7, PC-3, LNCaP and DU-145 cells) followed by incubation with steroid samples. Keratinocytes and PZ-HPV-7 cells, after reaching 70% confluence, were kept in MCDB media without additives for 20 hours before treatment with steroids. In general, reagents were dissolved in ethanol (EtOH), and dilution with the media was adjusted in such a way that the concentration of EtOH was 0.1% v/v.
(§4) It should be noted that in this assay cells were not serum-starved prior to addition of the reagents, and 10^−7 M of 1,25(OH)2D3 had little effect on all the cells.

[5] = tested on: PZ-HPV-7 (immortalized normal prostate) cells; assay: 3H-thymidine incorporation assay, PZ-HPV-7; assay type: cell-based
Method: (§5) Antiproliferation studies of keratinocytes (normal skin), MCF-7 (breast cancer), PZ-HPV-7 (immortalized normal prostate), LNcap (androgen-sensitive prostate cancer) and PC-3 (androgen-insensitive prostate cancer) cells, treated with 10^−6M of 25-OH-D3-3-BE (AMPI-105) or 1,25(OH)2D3 (bioactive Vitamin D3 hormone) were performed with a ^3H-thymidine incorporation assay
as §3, with “Keratinocytes and PZ-HPV-7 cells, after reaching 70% confluence, were kept in MCDB media without additives for 20 hours before treatment with steroids. In general, reagents were dissolved in ethanol (EtOH), and dilution with the media was adjusted in such a way that the concentration of EtOH was 0.1% v/v.” left out

[6] = tested on: MCF-7 (breast cancer) cells; assay: 3H-thymidine incorporation assay, MCF-7; assay type: cell-based; conditions: 10^−6M
Method: as §5
as §3, with “Keratinocytes and PZ-HPV-7 cells, after reaching 70% confluence, were kept in MCDB media without additives for 20 hours before treatment with steroids. In general, reagents were dissolved in ethanol (EtOH), and dilution with the media was adjusted in such a way that the concentration of EtOH was 0.1% v/v.” left out

[7] = tested on: PC-3 (androgen-insensitive prostate cancer) cells; assay: 3H-thymidine incorporation assay, PC-3; assay type: cell-based; conditions: 10^−6 M; for growth reduction of PC-3 cells: relative to EtOH
Method: as §5, §3
(§6) Assays were carried out with six (6) replicates and student's t-test was employed for statistical analysis. Results are expressed relative to EtOH (100%) in FIG. 24.

MC3T3 mouse bone cells = assay: Cell counting assay, MC3T3; assay type: cell-based; conditions: 48 hr; 10^−6 M 25-OH-D3-3-BE, 10^−7 M 1,25(OH)2D3; not serum-starved
Method: as §3, §4

[8] = tested on: keratinocytes (normal skin); assay: 3H-thymidine incorporation assay, keratinocytes; assay type: cell-based; conditions: 10^−6M
Method: as §5
as §3, with “Keratinocytes and PZ-HPV-7 cells, after reaching 70% confluence, were kept in MCDB media without additives for 20 hours before treatment with steroids. In general, reagents were dissolved in ethanol (EtOH), and dilution with the media was adjusted in such a way that the concentration of EtOH was 0.1% v/v.” left out

LAPC-4 cells = assay: Cell counting assay, LAPC-4; assay type: cell-based; conditions: 24 hours; 10^−6 M 25-OH-D3-3-BE, 10^−7 M 1,25(OH)2D3; not serum-starved
Method: as §3, §4

[9] = tested on: LNCaP (androgen-sensitive prostate cancer) cells; assay: 3H-thymidine incorporation assay, LNCaP (Example 13); assay type: cell-based
Method: as §5, §3, §6

MCF-7 cells = assay: Cell counting assay, MCF-7; assay type: cell-based; conditions: 48 hr; 10^−6 M 25-OH-D3-3-BE, 10^−7 M 1,25(OH)2D3; not serum-starved
Method: as §3, §4

normal kidney cells = assay: 3H-thymidine incorporation assay in normal kidney cells; assay type: cell-based; conditions: 10^−6M
[10] = tested on: PC-3 Prostate Cancer Cells; assay: Cell-counting antiproliferative evaluation, PC-3; assay type: cell-based; parameters: dose or concentration left out as unconfirmed; conditions: dosed days 1, 3, 5, counted 7th day
Method: as §2

24-OHase = assay: Message for 24-OHase in LNCaP cells; assay type: cell-based
[11] = tested on: RCC 54 kidney cancer cells; conditions: 7.5×10^−7 to 10^−6M
Method: In a typical assay cells were grown to 50-60% confluence in 24-well plates in respective media containing 5% FBS, and serum starved for 20 hours, followed by treatment with various agents (in 0.1% ethanolic solution) or ethanol (vehicle) in serum-containing medium for 16 hours. After the treatment media was removed from the wells and replaced with media containing ^3H-thymidine (Sigma, 0.1 μCi) per well, and the cells were incubated for 3 hours at 37° C. After this period media was removed by aspiration and the cells were washed thoroughly (3×0.5 ml) with PBS. Ice-cold 5% perchloric acid solution (0.5 ml) was added to each well and the cells were incubated on ice for 20 minutes. After this incubation, perchloric acid was removed by aspiration, replaced with 0.5 ml of fresh perchloric acid solution and the cells were incubated at 70° C. for 20 minutes. Solution from each well was mixed with scintillation fluid and counted in a liquid scintillation counter. There were eight (8) wells per sample; statistics was carried out by Student's t test.

[12] = tested on: Normal prostate WPMY cells; assay: Viability testing by MTT reduction in normal prostate cells; assay type: cell-based; conditions: 24 hours; AMPI-107 1 and 10 μM, Calcitrol 1 μM
Method: MTT is reduced in metabolically active cells, in part by the action of dehydrogenase enzymes, to generate reducing equivalents such as NADH and NADPH. The resulting intracellular purple formazan can be solubilized and quantified by spectrophotometry. After 5 minutes at room temperature, absorbances in plates were measured using a plate analyzer set for in dual wavelength comparisons at wavelength of 540 nm with a reference wavelength of 620 nm.

[13] = tested on: DU-145 human prostate cancer cells; assay: DU-145 xenograft efficacy, p.o. administration (Example 11); assay type: in vivo, nude mice; conditions: p.o.; calcitriol 0.5 μg/kg and 1.0 μg/kg; AMPI-109 0.5 μg/kg

Molecule: 25-hydroxyvitamin D3-3-epoxide [AMPI-106]
- anti-tumor effect (DU 145 cells): strong anti-tumor activity

Molecule: C=C1/C(=C\C=C2/CCC[C@]3(C)[C@@H]([C@H](C)/C=C/C=C/C(O)(CC)CC)CC[C@@H]23)C[C@@H](O)C[C@@H]1O [EB-1089, reference compound]
- anti-proliferative effect in DU-145 cells (DU-145 cells): failed to produce any discernible anti-proliferative effect

Molecule: Vitamin D3-3-epoxide [AMPI-107]
- efficacy on tumor size ([1]; 1 mg/kg i.p. every third day, day 11 to 30): strongly reduced tumor size
- toxicity (body weight) ([1]; i.p., hormone 0.5 and 1.0 μg/kg, MPI 107 1 mg/kg): completely non-toxic
- efficacy on tumor size ([2]; 1 mg/kg p.o. every third day, day 11 to 30): strongly reduced tumor size
- toxicity (body weight) ([2]; p.o., hormone 0.5 and 1.0 μg/kg, MPI 107 1 mg/kg): completely non-toxic
- growth inhibition of LNCaP cells [3]: strongly inhibited the growth and significantly stronger effect and more
- growth inhibitory activity in DU-145 cells [4]: approximately similar growth inhibitory activity; also recorded: equally effective

- gross weight of the animals versus untreated (DU 145 cells; during and after the treatment): no significant difference
Molecule: C=C1CCC(OC(=O)CBr)CC1=CC=C1CCCC2(C)C1CCC2C(C)CCCC(C)(C)O (stereo not drawn) [AMPI-105, 25-hydroxyvitamin D3-3-bromoacetate]
- number of LNCaP cells (LNCaP cells): sharply reduced number of cells
- growth inhibition of PZ-HPV-7 cells ([5]; 10^−6 M, relative to EtOH): approximately 50%
- growth inhibition in MCF-7 cells relative to 1,25(OH)2D3 [6]: weaker than 1,25(OH)2D3
- average tumor volume at the end of treatment (DU 145 cells; 0.25 μg/kg): 650 mm^3
- average tumor volume at the end of treatment (DU 145 cells; 0.5 μg/kg): 500 mm^3
- anti-tumor effect (DU 145 cells): strong anti-tumor activity
- anti-tumor effect (DU 145 cells; listed as 25-OH-D3-3-BE): dose-dependent anti-tumor effect
- cytotoxicity to PC-3 cells ([7]; phase contrast microscope): cytotoxic
- growth reduction of PC-3 cells [7]: 90%
- number of MC3T3 cells (MC3T3 mouse bone cells): affected to a much lesser extent
- growth inhibition in keratinocytes relative to 1,25(OH)2D3 [8]: stronger than an equivalent amount of 1,25 (OH)2D3
- number of LAPC-4 cells (LAPC-4 cells): sharply reduced number of cells
- cytotoxicity to LNCaP cells ([9]; 10^−6 M, phase contrast microscope): cytotoxic
- growth inhibition of LNCaP cells ([9]; 10^−6 M, relative to EtOH): ~98%
- number of MCF-7 cells (MCF-7 cells): affected to a much lesser extent

Molecule: C=C1/C(=C\C=C2/CCC[C@]3(C)[C@@H]([C@H](C)CCCC(C)(C)O)CC[C@@H]23)C[C@@H](O)C[C@@H]1O [calcitriol, 1,25-dihydroxyvitamin D3, reference compound]
- number of LNCaP cells (LNCaP cells): little effect
- inhibition at 1 µM ([5]; Prostate cell, read-out: growth inhibition of PZ-HPV-7 cells): ~65%
- impact on normal kidney cells versus control (normal kidney cells): neither Calcitriol nor AMPI-109 had any statistically different impact
- growth reduction of PC-3 cells [7]: 70%
- number of MC3T3 cells (MC3T3 mouse bone cells): little effect
- toxicity (body weight) ([1]; mouse, in vivo, ip, 1 mg/kg): clearly toxic as evidenced by considerable loss of body weight
- growth inhibition of PC-3 cells [10]: strongly inhibited the growth
- toxicity (body weight) ([2]; mouse, in vivo, po, 1 mg/kg): clearly toxic as evidenced by considerable loss of body weight
- growth inhibition of LNCaP cells [3]: strongly inhibited the growth
- message for 24-OHase (24-OHase): up regulated
- growth inhibitory activity in DU-145 cells [4]: approximately similar growth inhibitory activity
- number of LAPC-4 cells (LAPC-4 cells): little effect
- antiproliferative effect in DU-145 cells (DU-145 cells; 2.5×10^−7M to 10^−6M, 20 hours): no effect
- anti-proliferative effect in DU-145 cells (DU-145 cells): failed to produce any discernible anti-proliferative effect
- inhibition at 1 µM ([9]; Homo sapiens, LNCaP, read-out: growth inhibition of LNCaP cells): ~60%
- reduction of proliferation of RCC 54 kidney cancer cells [11]: did not have any statistically different impact
- cell metabolism (MTT reduction) [12]: slightly, but significantly reduce cell metabolism
- number of MCF-7 cells (MCF-7 cells): little effect
- body weight [13]: significant loss in body weight

Molecule: C=C1/C(=C\C=C2/CCC[C@]3(C)[C@@H]([C@H](C)/C=C/[C@@H](O)C4(C(=O)OCCCC)CC4)CC[C@@H]23)C[C@@H](O)C[C@@H]1O [ZK 159222]
- message for 24-OHase (24-OHase): obliterated

Molecule: C=C1CC[C@H](O)C/C1=C/C=C1\CCC[C@]2(C)[C@@H]([C@H](C)CCCC(C)(C)O)CC[C@@H]12 [25-OH-D3, 25-hydroxyvitamin D3, reference compound]
- growth reduction of PC-3 cells [7]: marginal antiproliferative effect
